# Measurements reported in patent US10112907B2, “Substituted indazoles for treating tendon and/or ligament injuries” (NOVARTIS AG, priority 2016, dated 2018).
# Read-outs that look alike come from different tables or passages of the source.
# Assays:
# [1] = molecular target: recombinant human Tyk2 (aa888-1187) (Homo sapiens (Human), UniProt P29597); assay: Kinase selectivity panel, substrate peptide phosphorylation (Caliper); format: biochemical; settings: 45 uM ATP
# Rat tail fascicles = assay: Ex vivo fascicle assay, mechanical testing; parameters: species or system rat (Sprague Dawley); settings: 1 uM, 37° C., 4 weeks
# Source text: Tail from skeletal mature rat (Sprague Dawley, female, 30-50 weeks old) was removed and kept on ice. Approximately 40 mm long segment was cut from the mid-portion of the tail. Rat tail fascicles (n=12) were carefully extracted from the segment. Fascicles were then randomly selected into three groups, fresh (n=4), vehicle (n=4) and (S)-(1-((4-(3-amino-4-methyl-1H-indazol-5-yl)-3-methylphenyl)sulfonyl)-4,4-difluoropyrrolidin-2-yl)methanol (Test Compound A hereinafter) treated (n=4). Biomechanical properties were measure immediately after extraction for the fresh group. […]
# Samples were clamped for mechanical testing using a standard uniaxial material testing machine (ElectroPuls E3000, 50N load-cell, Instron, US) in a custom environmental testing chamber filled with PBS. Samples were preloaded to a position where crimp (macroscopic fascicle waviness) disappeared and initial length (L0) based on grip-to-grip distance was recorded. […] Sample lengths and corresponding forces were recorded to calculate engineering stress and strain. Young's moduli were calculated from the linear region of the stress-strain curves. […]
# [2] = tested on: Tenomodulin (Tnmd) gene expression in rat tail tendon fascicles; assay: Ex vivo assay, Tnmd mRNA in tendon fascicles (qPCR); format: cell-based, Sprague Dawley rat
# [3] = tested on: Scleraxis (Scx) gene expression in rat tail tendon fascicles; assay: Ex vivo assay, Scx mRNA in tendon fascicles (qPCR); format: cell-based, Sprague Dawley rat
# [4] = tested on: Scleraxis (Scx) gene transcriptional activation in TT-D6 Scx-luciferase (ScxL) cell line; assay: SCX-LUC in vitro assay (Scx-luciferase reporter); format: cell-based; settings: Mus musculus
# tendon lesion = assay: In vivo assay, endochondral ossification readout (Alcian blue) in tendon lesion; settings: 1 mg peri-tendinous injection 3 days post-surgery
# Protocol: Animals were treated 3 days post-surgery with 1 mg of compound of example 32 in 10 ul of vehicle delivered by injection under the skin in the peri-tendinous region. Tendons were harvested 25 days post-treatment. Strong Alcian blue staining could be seen in the lesion in the vehicle treated group which is typical of endochondral tissue forming which further ossifies with time. […] Definiens Tissue Studio software was used for quantitative image analysis of the Alcian blue positive area. Serial step sections encompassing 2 mm of the lesion were used for quantification.
# [5] = tested on: collagen type I (Col1a2) gene expression in rat tail tendon fascicles; assay: Ex vivo assay, Col1a2 mRNA in tendon fascicles (qPCR); format: cell-based, Sprague Dawley rat
# [6] = molecular target: recombinant human Jak1 (aa 866-1154) (Homo sapiens (Human), UniProt P23458); assay: Kinase selectivity panel, substrate peptide phosphorylation (Caliper); format: biochemical
# [7] = molecular target: recombinant human Jak2 (aa808-1132) (Homo sapiens (Human), UniProt O60674); assay: as above; format: biochemical
# [8] = molecular target: recombinant human Jak3 (aa811-1124) (Homo sapiens (Human), UniProt P52333); format: biochemical
# [9] = read-out: Ex vivo Tnmd (EC50 uM)
# [10] = read-out: Ex vivo SCX (EC50 uM)
# [11] = read-out: Ex vivo Col1a2 (EC50 uM)
# [12] = Table 1, read-out: Ex vivo Tnmd (EC50 uM)
# [13] = Table 1, read-out: Ex vivo SCX (EC50 uM)
# [14] = Table 1, read-out: Scx-Luc (EC50 uM)
# [15] = Table 1, read-out: Ex vivo Col1a2 (EC50 uM)
# Sequence of recombinant human Tyk2 (aa888-1187) (P29597 888-1187): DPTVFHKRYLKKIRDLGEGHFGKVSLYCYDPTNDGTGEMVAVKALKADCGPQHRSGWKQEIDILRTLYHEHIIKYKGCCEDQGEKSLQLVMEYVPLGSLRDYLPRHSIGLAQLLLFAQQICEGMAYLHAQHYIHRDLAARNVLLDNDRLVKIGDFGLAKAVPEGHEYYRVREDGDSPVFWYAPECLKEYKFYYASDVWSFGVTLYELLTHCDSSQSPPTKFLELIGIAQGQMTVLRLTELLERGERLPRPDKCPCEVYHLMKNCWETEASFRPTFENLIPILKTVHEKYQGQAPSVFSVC
# Sequence of recombinant human Jak3 (aa811-1124) (P52333 811-1124): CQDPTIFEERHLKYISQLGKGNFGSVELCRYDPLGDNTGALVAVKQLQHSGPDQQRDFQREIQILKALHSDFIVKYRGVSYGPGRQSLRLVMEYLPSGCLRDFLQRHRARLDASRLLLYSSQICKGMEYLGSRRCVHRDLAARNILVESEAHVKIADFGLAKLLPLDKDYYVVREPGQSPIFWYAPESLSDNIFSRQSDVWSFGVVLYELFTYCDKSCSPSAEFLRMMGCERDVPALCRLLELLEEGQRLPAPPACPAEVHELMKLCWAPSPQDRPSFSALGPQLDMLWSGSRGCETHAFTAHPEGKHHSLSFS
# Sequence of recombinant human Jak1 (aa 866-1154) (P23458 866-1154): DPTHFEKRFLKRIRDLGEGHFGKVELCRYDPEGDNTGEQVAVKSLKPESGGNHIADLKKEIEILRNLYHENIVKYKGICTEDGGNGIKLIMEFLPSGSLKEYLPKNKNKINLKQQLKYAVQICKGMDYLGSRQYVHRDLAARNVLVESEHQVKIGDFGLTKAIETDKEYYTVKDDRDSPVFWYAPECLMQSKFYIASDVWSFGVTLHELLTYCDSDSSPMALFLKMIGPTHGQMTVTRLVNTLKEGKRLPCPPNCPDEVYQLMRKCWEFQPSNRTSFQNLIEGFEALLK
Compound,IC50 [1],IC50 [7],"EC50 [2, 12]","EC50 [3, 13]","EC50 [4, 14]","EC50 [5, 15]",also measured
CCS(=O)(=O)N1CC(CC#N)(n2cc(-c3ncnc4[nH]ccc34)cn2)C1,0.03 µM,–,–,–,–,–,–
"Cc1cc(S(=O)(=O)N2CC(F)(F)C[C@H]2CO)ccc1-c1ccc2[nH]nc(N)c2c1C [Example 32, (S)-(1-((4-(3-amino-4-methyl-1H-indazol-5-yl)-3-methylphenyl)sulfonyl)-4,4-difluoropyrrolidin-2-yl)methanol]",–,–,–,–,–,–,"tendon degeneration in unloaded condition (tendon structure, failure stress, Young's modulus) (Rat tail fascicles): could prevent the degeneration; EC50 ([2]; 96 h, Table 3, four days, read-out: Ex vivo Tnmd (EC50 μM)): 6.1 µM; EC50 ([3]; 96 h, Table 3, four days, read-out: Ex vivo Scx (EC50 μM)): 5.56 µM; EC50 ([4]; 96 h, Table 3, four days, read-out: Scx-Luc (EC50 μM)): 0.518 µM; effect on improper healing (aberrant differentiation towards chondrogenic and osteogenic lineages) (tendon lesion; 25 days post-treatment): able to counter some of the improper healing; Endochondral ossification readout Alcian Blue positive (mm^2/section), Mean (tendon lesion; tendons harvested 25 days post-treatment): 25.09 mm^2/section; EC50 ([5]; 96 h, Table 3, four days, read-out: Ex vivo Col1a2 (EC50 μM)): 4.59 µM"
CC[C@@](C)(Nc1ccnc(-c2c[nH]c3ncccc23)n1)C(=O)NCC(F)(F)F [reference compound],–,0.13 µM,–,–,–,–,"EC50 [2, 9]: 1.77 µM; EC50 [3, 10]: 1.65 µM; EC50 ([4]; read-out: Scx-Luc (EC50 uM)): 0.03 µM; IC50 ([6]; 45 uM ATP): 0.02 µM; EC50 [5, 11]: 0.88 µM"
N#CCNC(=O)c1ccc(-c2ccnc(Nc3ccc(N4CCOCC4)cc3)n2)cc1 [reference compound],–,–,3.27 µM,3.92 µM,0.12 µM,4.67 µM,–
Cc1cc(Nc2nc(N[C@@H](C)c3ncc(F)cn3)ncc2Cl)n[nH]1 [reference compound],0.002 µM,–,–,–,–,–,"IC50 ([8]; 45 uM ATP): 0.06 µM; EC50 [2, 9]: 3.3 µM; EC50 [3, 10]: 3.37 µM; EC50 ([4]; read-out: Scx-Luc (EC50 uM)): 0.008 µM; IC50 ([6]; 45 uM ATP): 0.0002 µM; EC50 [5, 11]: 2.61 µM; IC50 ([7]; 45 uM ATP): 0.0007 µM"
CS(=O)(=O)NCc1nc2cnc3[nH]ccc3c2n1[C@@H]1C[C@H]2CC[C@@H]1C2 [reference compound],0.14 µM,0.19 µM,4.57 µM,3.22 µM,0.18 µM,3.76 µM,IC50 [8]: 0.95 µM
N#Cc1ccc(COc2ccc(-c3cccc4nc(NC(=O)C5CC5)nn34)cc2)cn1 [reference compound],0.11 µM,0.03 µM,1.31 µM,5.77 µM,0.22 µM,0.9 µM,IC50 [8]: 0.38 µM; IC50 [6]: 0.001 µM
C[C@@H](O)c1nc2cnc3[nH]ccc3c2n1[C@H]1CCCOC1 [reference compound],–,–,4.19 µM,3.31 µM,0.82 µM,4.32 µM,–
O=C(Nc1nc2cccc(-c3ccc(OCc4ccc[n+]([O-])c4)cc3)n2n1)C1CC1 [reference compound],–,–,5.99 µM,0.36 µM,0.02 µM,0.4 µM,–
COc1ccc(-c2nc3c(NCC4CCNCC4)c(Cl)cnc3[nH]2)c(F)c1 [reference compound],–,–,0.08 µM,0.47 µM,0.51 µM,1.15 µM,–
